In patent US20240058408A1, “COMPOSITION FOR PREVENTING OR TREATING MACULAR DEGENERATION CONTAINING GINSENG BERRY EXTRACT” (HOLISTIC BIO CO., LTD., priority 2020, published 2024):

Test system: ARPE-19 cells
Test: Cell protection against blue light-induced photooxidation of A2E, extract treated after A2E
Type: cell-based
Conditions: Homo sapiens, ARPE-19, 20 min; 30 μM after A2E 20 μM (positive control), blue light 430 nm 6000 lux 20 min; read-out: cell viability compared to the normal group
Protocol: To investigate the photooxidation by blue light induction (post-treatment), ARPE-19 cells were seeded to a 96-well plate at 1×10^4 cell/well and then incubated→(24 hr later) A2E (20 μM) pre-treated once→(after 24 hr) post-treated with a ginseng berry extract (25, 50, 100 μg/ml) once→(after 24 hr) irradiated with blue light (6000 lux, 20 min)→and then, (after 24 hr) the cell viability was measured by using the cell count kit. Since the A2E accumulated in human retinal pigment epithelial cells (ARPE-19 cells) is known to induce cytotoxicity when irradiated with blue light (BL), cell protective capability and cell viability against blue light-induced photooxidation were analyzed. Human retinal pigment epithelial cells (ARPE-19 cells) were aliquoted in a 96-well tissue culture plate at a density of 1×10^4 cells/well and cultured for 24 hours. After treating with A2E at a concentration of 20 μM and culturing for 24 hours, the experimental group was treated with 25, 50, and 100 μg/mL of the ginseng berry extract, a positive control group was treated with 30 μM of lutein instead of the ginseng berry extract, and A2E was accumulated in a negative control group without preliminary drug treatment. After culturing for 24 hours, blue light (BL, 430 nm, 6000 lux) was irradiated for 20 minutes, and after 24 hours, the cell viability was measured by using the cell count kit.

With `CC1=C[C@H](O)CC(C)(C)[C@H]1/C=C/C(C)=C/C=C/C(C)=C/C=C/C=C(C)/C=C/C=C(C)/C=C/C1=C(C)C[C@@H](O)CC1(C)C` [lutein] the viability at 30 µM was 88.2%.
